Target: T1, c-MYC (Homo sapiens, UniProt P01106)
T1 construct: human recombinant c-MYC protein (Abcam ab169901)
Assay: microscale thermophoresis with RED-NHS labelled recombinant c-MYC
Format: binding

T1 sequence (P01106 16-454): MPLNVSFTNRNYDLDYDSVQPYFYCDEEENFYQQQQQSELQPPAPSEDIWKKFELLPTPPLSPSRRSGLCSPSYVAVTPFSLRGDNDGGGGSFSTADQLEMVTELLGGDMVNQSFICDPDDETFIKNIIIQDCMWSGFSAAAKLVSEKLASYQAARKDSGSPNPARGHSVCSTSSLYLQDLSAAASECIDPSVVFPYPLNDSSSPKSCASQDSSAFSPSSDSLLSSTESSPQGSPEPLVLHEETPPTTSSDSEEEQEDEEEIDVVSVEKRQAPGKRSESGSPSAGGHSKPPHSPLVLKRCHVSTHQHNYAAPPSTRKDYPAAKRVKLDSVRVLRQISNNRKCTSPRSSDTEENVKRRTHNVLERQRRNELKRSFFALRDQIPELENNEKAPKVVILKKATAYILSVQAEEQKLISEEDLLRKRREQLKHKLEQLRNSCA

`Cc1ccc(NC(=O)N2Cc3[nH]cnc3C[C@H]2c2nc(-c3ccc4ccccc4c3)no2)cc1` [ZINC15675948, (6S)-N-(4-methylphenyl)-6-(3-naphthalen-2-yl-1,2,4-oxadiazol-5-yl)-3,4,6,7-tetrahydroimidazo [4,5-c]pyridine-5-carboxamide] showed a Kd of 1080 ± 100 nM.

— publication PMC10419799, “Modes of Action of a Novel c-MYC Inhibiting 1,2,4-Oxadiazole Derivative in Leukemia and Breast Cancer Cells” (Molecules, 2023)
